Experimental data: patent publication US6894050B2, “5-HT receptor ligands and uses thereof” (Pfizer Inc., priority 2001, dated 2005)
Counter-ions that a name gives are not always drawn.

How the values were obtained:
[1] = system: anaesthetised rabbit model of sexual arousal; test: Pelvic nerve-stimulated genital blood flow in the anaesthetised rabbit model of sexual arousal; type: in vivo; conditions: 5 mg/kg s.c.; for Compound-induced potentiation of stimulated vaginal blood flow: %
Description: Female New Zealand rabbits (˜2.5 kg) were pre-medicated with a combination of Medetomidine (Domitor®) 0.5 ml/kg intramuscularly (i.m.), and Ketamine (Vetalar®) 0.25 ml/kg i.m. whilst maintaining oxygen intake via a face mask. The rabbits were tracheotomised using a Portex™ uncuffed endotracheal tube 3 ID (internal diameter), connected to ventilator and maintained at a ventilation rate of 30-40 breaths per minute, with an approximate tidal volume of 18-20 ml, and a maximum airway pressure of 10 cm H2O. Anaesthesia was then switched to Isoflurane® and ventilation continued with O2 at 2 l/min. The right marginal ear vein was cannulated using a 23G or 24G catheter, and Lactated Ringer solution perfused at 0.5 ml/min. The rabbit was maintained at 3% Isoflurane® during invasive surgery, dropping to 2% for maintenance anaesthesia.
The left groin area of the rabbit was shaved and a vertical incision was made approximately 5 cm in length along the thigh. The femoral vein and artery were exposed, isolated and then cannulated with a PVC catheter (17G) for the infusion of drugs and compounds. Cannulation was repeated for the femoral artery, inserting the catheter to a depth of 10 cm to ensure that the catheter reached the abdominal aorta. This arterial catheter was linked to a Gould system to record blood pressure. Samples for blood gas analysis were also taken via the arterial catheter. Systolic and diastolic pressures were measured, and the mean arterial pressure calculated using the formula (diastolic×2+systolic)÷3. Heart rate was measured via the pulse oxymeter and Po-ne-mah data acquisition software system (Ponemah Physiology Platform, Gould Instrument Systems Inc).
A ventral midline incision was made into the abdominal cavity. The incision was about 5 cm in length just above the pubis. The fat and muscle was bluntly dissected away to reveal the hypogastric nerve which runs down the body cavity. It was essential to keep close to the side curve of the pubis wall in order to avoid damaging the femoral vein and artery, which lie above the pubis. The sciatic and pelvic nerves lie deeper and were located after further dissection on the dorsal side of the rabbit. Once the sciatic nerve is identified, the pelvic nerve was easily located. The term pelvic nerve is loosely applied; anatomy books on the subject fail to identify the nerves in sufficient detail. However, stimulation of the nerve causes an increase in vaginal and clitoral blood flow, and innervation of the pelvic region. The pelvic nerve was freed away from surrounding tissue and a Harvard bipolar stimulating electrode was placed around the nerve. The nerve was slightly lifted to give some tension, then the electrode was secured in position. Approximately 1 ml of light paraffin oil was placed around the nerve and electrode. This acts as a protective lubricant to the nerve and prevents blood contamination of the electrode. The electrode was connected to a Grass S88 Stimulator. The pelvic nerve was stimulated using the following parameters:—5V, pulse width 0.5 ms, duration of stimulus 10 seconds and a frequency range of 2 to 16 Hz. Reproducible responses were obtained when the nerve was stimulated every 15-20 minutes. A frequency response curve was determined at the start of each experiment in order to determine the optimum frequency to use as a sub-maximal response, normally 4 Hz. A ventral midline incision was made, at the caudal end of the pubis, to expose the pubic area. Connective tissue was removed to expose the tunica of the clitoris, ensuring that the wall was free from small blood vessels. The external vaginal wall was also exposed by removing any connective tissue. One laser Doppler flow probe was inserted 3 cm into the vagina, so that half the probe shaft was still visible. A second probe was positioned so that it lay just above the external clitoral wall. The position of these probes was then adjusted until a signal was obtained. […]

[2] = biological target: T1, 5-HT2c receptor (5-HT2c expressed NIH 3T3 cells) (UniProt P28335); test: Functional Assay (FLIPR calcium fluorescence, Fluo 4-AM); type: cell-based
T1 sequence (P28335 1-458): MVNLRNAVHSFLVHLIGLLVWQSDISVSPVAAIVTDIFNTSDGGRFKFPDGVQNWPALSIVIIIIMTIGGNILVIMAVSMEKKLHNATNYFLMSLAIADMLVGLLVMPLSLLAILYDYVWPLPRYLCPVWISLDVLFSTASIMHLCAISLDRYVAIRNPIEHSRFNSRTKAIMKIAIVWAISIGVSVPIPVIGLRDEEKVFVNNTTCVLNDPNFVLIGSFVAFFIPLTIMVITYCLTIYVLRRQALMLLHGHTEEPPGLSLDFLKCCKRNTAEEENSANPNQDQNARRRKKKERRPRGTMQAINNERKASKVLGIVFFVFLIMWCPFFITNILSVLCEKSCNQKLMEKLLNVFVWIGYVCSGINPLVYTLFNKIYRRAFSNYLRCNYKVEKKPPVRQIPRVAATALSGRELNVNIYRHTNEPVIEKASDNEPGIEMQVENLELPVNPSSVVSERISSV
Description: […] Forty eight (48) hrs later the cells were loaded with the calcium sensitive dye, Fluo 4-AM (4 μM dissolved in DMSO containing pluronic acid) in serum free DMEM in the presence of probenicid (2.5 mM) for 75 minutes at 37° C. in a CO2 incubator. Unincorporated dye was removed by washing 3 times with a HEPES-buffered saline containing probenicid (2.5 mM) using a Skatron™ cell washer (final volume 30 μL).
Test compound additions were made simultaneously to all 384 wells after 20 seconds of baseline recording. Concentration-response curves were generated using Graphpad Prism™ (available from GraphPad Software, Inc., San Diego, Calif.) and agonist efficacies were generated as % of the response to 10 μM 5-HT (considered as 100%).

`COCC[C@H](CC1(C(=O)NCCCc2ccc(Cl)cc2)CCCC1)C(=O)O` (as salt: sodium) showed a melting point of 214 to 216 °C.
In the case of `O=C1Nc2cc(Cl)c(Cl)cc2N2CCNCC12` (stereo not shown) [8,9-dichloro-2,3,4,4a-tetrahydro-1H-pyrazino[1,2-a]quinoxalin-5(6H)-one], the “time after s.c. dosing at which potentiation was significant” value [1] is reported as 30 min, the “time potentiation remained elevated” value [1] is reported as “circa 1 hr” and the “effect on pelvic-nerve stimulated (PNS) increases in vaginal and clitoral blood flow” value ([1]; anaesthetised rabbit) is reported as “potent enhancer”. The “potentiation of pelvic nerve stimulated increases in genital blood flow” value ([1]; anaesthetised rabbit) was “circa 35%”, the “effect on basal genital blood flow in the absence of PNS” value ([1]; no pelvic nerve stimulation) was “no effect” and the “Pelvic nerve stimulated increases in vaginal blood flow” value ([1]; 15 min after injection) was 292 Laser Doppler units. For the same compound, the “Unstimulated vaginal blood flow” value ([1]; 15 min after injection) was 185 Laser Doppler units, the “Compound-induced potentiation of stimulated vaginal blood flow” value (“Compound-induced potentiation” below) ([1]; 15 min after injection) was 21% and the “Pelvic nerve stimulated increases in vaginal blood flow” value ([1]; 30 min after injection) was 325 Laser Doppler units. The “Unstimulated vaginal blood flow” value ([1]; 30 min after injection) was 162 Laser Doppler units, the “Compound-induced potentiation” value ([1]; 30 min after injection) was 34% and the “Pelvic nerve stimulated increases in vaginal blood flow” value ([1]; 45 min after injection) was 295 Laser Doppler units. For the same compound, the “Unstimulated vaginal blood flow” value ([1]; 45 min after injection) was 150 Laser Doppler units, the “Compound-induced potentiation” value ([1]; 45 min after injection) was 22% and the “Pelvic nerve stimulated increases in vaginal blood flow” value ([1]; 60 min after injection) was 325 Laser Doppler units. For the same compound, the “Unstimulated vaginal blood flow” value ([1]; 60 min after injection) was 127 Laser Doppler units, the “Compound-induced potentiation” value ([1]; 60 min after injection) was 34% and the “Pelvic nerve stimulated increases in vaginal blood flow” value ([1]; 75 min after injection) was 252 Laser Doppler units. For the same compound, the “Unstimulated vaginal blood flow” value ([1]; 75 min after injection) was 137 Laser Doppler units, the “Compound-induced potentiation” value ([1]; 75 min after injection) was 4% and the “Pelvic nerve stimulated increases in vaginal blood flow” value ([1]; 90 min after injection) was 247 Laser Doppler units. For the same compound, the “Unstimulated vaginal blood flow” value ([1]; 90 min after injection) was 132 Laser Doppler units and the “Compound-induced potentiation” value ([1]; 90 min after injection) was 2%.
With `Cc1cc(C)cc(COc2cncc(N3CCNCC3)n2)c1` [Example 1-AA, 6′-(3,5-Dimethyl-benzyloxy)-3,4,5,6-tetrahydro-2H-[1,2′]bipyrazinyl] the “functional behaviour at 5-HT2c” value [2] was “acted as an antagonist”.
For `C[C@@H](Oc1cncc(N2CCNCC2)n1)c1ccccc1` [Example 1-AE, 6′-[(1R)-Phenyl-ethoxy]-3,4,5,6-tetrahydro-2H-[1,2′]bipyrazinyl], the “functional behaviour at 5-HT2c” value [2] was “acted as an antagonist”.
For `C[C@H](Oc1cncc(N2CCNCC2)n1)c1ccccc1` [Example 1-AF, 6′-[(1S)-Phenyl-ethoxy]-3,4,5,6-tetrahydro-2H-[1,2′]bipyrazinyl], the “functional behaviour at 5-HT2c” value [2] was “acted as an antagonist”.
For `C[C@@H]1CNCCN1c1cncc(OCc2ccccc2F)n1` [Example 1-AH, 6′-(2-Fluoro-benzyloxy)-(2R)-methyl-3,4,5,6-tetrahydro-2H-[1,2′]bipyrazinyl], the “functional behaviour at 5-HT2c” value [2] was “acted as an antagonist”.
With `C[C@H]1CN(c2cncc(OCc3cccc(F)c3)n2)CCN1` [Example 1-AL, 6′-(3-Fluoro-benzyloxy)-(3S)-methyl-3,4,5,6-tetrahydro-2H-[1,2′]bipyrazinyl] the “functional behaviour at 5-HT2c” value [2] was “acted as an antagonist”.
For `Clc1cccc(COc2cncc(N3CCNCC3)n2)c1Cl` [Example 1-AO, 6′-(2,3-Dichloro-benzyloxy)-3,4,5,6-tetrahydro-2H-[1,2′]bipyrazinyl], the “functional behaviour at 5-HT2c” value [2] was “acted as an antagonist”.
With `CN1CCN(c2cncc(OCc3cccc(Cl)c3)n2)CC1` [Example 1-AS, 6′-(3-Chloro-benzyloxy)-4-methyl-3,4,5,6-tetrahydro-2H-[1,2′]bipyrazinyl] the “functional behaviour at 5-HT2c” value [2] was “acted as an antagonist”.
In the case of `CN1CCN(c2cncc(OCc3cccc(F)c3)n2)CC1` [Example 1-AT, 6′-(3-Fluoro-benzyloxy)-4-methyl-3,4,5,6-tetrahydro-2H-[1,2′]bipyrazinyl], the “functional behaviour at 5-HT2c” value [2] is reported as “acted as an antagonist”.
With `Clc1cc(Cl)cc(COc2cncc(N3CCNCC3)n2)c1` [Example 1-N, 6′-(3,5-Dichloro-benzyloxy)-3,4,5,6-tetrahydro-2H-[1,2′]bipyrazinyl] the “functional behaviour at 5-HT2c” value [2] was “acted as an antagonist”.
For `Clc1ccc(COc2cncc(N3CCNCC3)n2)cc1` [Example 1-R, 6′-(4-Chloro-benzyloxy)-3,4,5,6-tetrahydro-2H-[1,2′]bipyrazinyl], the “functional behaviour at 5-HT2c” value [2] was “acted as an antagonist”.
For `C[C@@H]1CN(c2cncc(OCc3cccc(Cl)c3)n2)CCN1` [Example 1-U, 6′-(3-Chloro-benzyloxy)-(3R)-methyl-3,4,5,6-tetrahydro-2H-[1,2′]bipyrazinyl], the “functional behaviour at 5-HT2c” value [2] was “acted as an antagonist”.
For `C[C@@H]1CN(c2cncc(OCc3cccc(Cl)c3)n2)C[C@H](C)N1` [Example 1-V, 6′-(3-Chloro-benzyloxy)-(3R,5S)-dimethyl-3,4,5,6-tetrahydro-2H-[1,2′]bipyrazinyl], the “activity at 10 μM” value ([2]; 10 μM) was “no activity”.
In the case of `FC(F)(F)c1cc(COc2cncc(N3CCNCC3)n2)cc(C(F)(F)F)c1` [Example 1-W, 6′-(3,5-Bis-trifluoromethyl-benzyloxy)-3,4,5,6-tetrahydro-2H-[1,2′]bipyrazinyl], the “functional behaviour at 5-HT2c” value [2] is reported as “acted as an antagonist”.
In the case of `CC(Oc1cncc(N2CCNCC2)n1)c1cc(F)cc(F)c1` (stereo not shown) [Example 1-Z, 6′-[1-(3,5-Difluoro-phenyl)-ethoxy]-3,4,5,6-tetrahydro-2H-[1,2′]bipyrazinyl], the “functional behaviour at 5-HT2c” value [2] is reported as “acted as an antagonist”.
With `Cl.Clc1ccc(CNc2cncc(N3CCNCC3)n2)cc1` [Example 4-C, (4-Chloro-benzyl)-(3,4,5,6-tetrahydro-2H-[1,2′]bipyrazinyl-6′-yl)-amine hydrochloride salt] the “functional behaviour at 5-HT2c” value [2] was “acted as an antagonist”.
With `Cl.Fc1ccc(CNc2cncc(N3CCNCC3)n2)cc1` [Example 4-D, (4-Fluoro-benzyl)-(3,4,5,6-tetrahydro-2H-[1,2′]bipyrazinyl-6′-yl)-amine hydrochloride salt] the “functional behaviour at 5-HT2c” value [2] was “acted as an antagonist”.
